The values below come from patent publication US5962487A, “Antipicornaviral compounds and methods for their use and preparation” (Agouron Pharmaceuticals, Inc., priority 1997, dated 1999).

A value given as a limit tells only on which side of the number the result lay.

One data set relates to HRV-14. Briefly: Antirhinoviral HI-HeLa Cell Culture Assay (cell protection, XTT), HRV-14. The format is cell-based, human rhinovirus. The settings on record: for TI: CC50/EC50, HRV serotype-14, 2880 min; for EC50: Rhinovirus B, HRV14, 48 h, HRV serotype-14 infected HI-HeLa cells, XTT, two days. On the procedure:
In the Cell Protection Assay, the ability of compounds to protect cells against HRV infection was measured by the XTT dye reduction method. This method is described in O. S. Weislow, R. Kiser, D. L. Fine, J. Bader, R. H. Shoemaker, and M. R. Boyd, J. Natl. Cancer Inst. 1989, 81, 577-586, which document is entirely incorporated herein by reference.
(§1) HI-HeLa cells were infected with HRV-14 (unless otherwise noted) at a multiplicity of infection (m.o.i.) of 0.13 (virus particles/cell) or mock-infected with medium only. Infected or mock-infected cells were resuspended at 8×10^5 cells per mL and incubated with appropriate concentrations of compounds of formulas I and II. Two days later, XTT/PMS was added to test plates, and the amount of formazan produced was quantified spectrophotometrically at 450/650 nm. The EC50 was calculated as the concentration of compound that increased the percentage of formazan production in compound-treated, virus-infected cells to 50% of that produced by compound-free mock-infected cells. The 50% cytotoxic dose (CC50) was calculated as the concentration of compound that decreased the percentage of formazan produced in compound-treated, mock-infected cells to 50% of that produced in compound-free, mock-infected cells. The therapeutic index (TI) was calculated by dividing the CC50 by the EC50.
(§2) All strains of human rhinovims (HRV) for use in this assay were purchased from American Type Culture Collection (ATCC), except for HRV serotype-14, which was produced from the infectious cDNA clone, constructed and supplied to us by Dr. Roland Rueckert at the Institute for Molecular Virology, University of Wisconsin, Madison, Wis. HRV stocks were propagated, and antiviral assays were performed in HI-HeLa (ATCC). Cells were grown in Minimal Essential Medium, available from Life Technologies, with 10% fetal bovine serum.
The compounds were tested against control compounds WIN 51711, WIN 52084, and WIN 54954, all obtained from Sterling-Winthrop Pharmaceuticals, and control compound Pirodavir, obtained from Janssen Pharmaceuticals. Antiviral data obtained for the test compounds are shown in Table 2 where all data are for HRV serotype-14 unless otherwise noted in parentheses.
(In general: Tetrazolium dyes change colour on reduction, which living cells bring about.)

Another data set can be described thus: in vitro. The format is cell-based. The settings on record: human, hi-hela cells. On the procedure:
as §1, §2

For data set [1], the target named is T1, Rhinovirus 3C protease (RVP) serotype-14 (Human rhinovirus 14, UniProt P03303).
T1 construct: Recombinant Rhinovirus 3C proteases from serotypes 14, 16, 2 or 89 were prepared; made in house
T1 sequence (P03303 1538-1719): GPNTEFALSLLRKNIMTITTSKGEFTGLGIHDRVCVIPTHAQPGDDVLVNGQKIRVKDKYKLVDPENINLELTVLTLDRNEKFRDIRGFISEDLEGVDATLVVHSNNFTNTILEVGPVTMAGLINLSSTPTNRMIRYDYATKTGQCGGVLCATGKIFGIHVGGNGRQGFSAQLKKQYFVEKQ
Briefly: Inhibition of Rhinovirus Protease, serotype 14 (FRET assay). The data set is classed as biochemical. The settings on record: for Ki: RVP serotype-14, 10 minute preincubation with 50 nM RVP prior to addition of substrate, read-out: INHIB (Ki); for kinact/KI: read-out: kobs/I. On the procedure:
Stock solutions (50 mM, in DMSO) of various compounds were prepared; dilutions were in the same solvent. Recombinant Rhinovirus 3C proteases from serotypes 14, 16, 2 or 89 were prepared by the following standard chromatographic procedures: (1) ion exchange using Q Sepharose Fast Flow from Pharmacia; (2) affinity chromatography using Affi-Gel Blue from Biorad; and (3) sizing using Sephadex G-100 from Pharmacia. Assays contained 2% DMSO, 50 mM tris pH 7.6, 1 mM EDTA, a compound at the indicated concentrations, approximately 1 μM substrate, and 50-100 nM protease. For Ki determinations, the compound and the enzyme were preincubated for 10 minutes at 30° C. prior to addition of the substrate (substrate start). The kobs/I values were obtained from reactions initiated by addition of enzyme rather than substrate. RVP activity is measured in the fluorescence resonance energy transfer assay. The substrate was (N-terminal) DABCYL-(Gly-Arg-Ala-Val-Phe-Gln-Gly-Pro-Val-Gly)-EDANS. In the uncleaved peptide, the EDANS fluorescence was quenched by the proximal DABCYL moiety. When the peptide was cleaved, the quenching was relieved, and activity was measured as an increase in fluorescence signal.
In the above table, all data is for RVP serotype-14 unless otherwise noted in parentheses. All strains of human rhinovirus (HRV) were purchased from American Type Culture Collection (ATCC), except for serotype 14, which was produced from the infectious cDNA clone constructed and supplied to us by Dr. Roland Rueckert at the Institute for Molecular Virology, University of Wisconsin, Madison, Wis. The column designated INHIB represents the percent inhibition, with the concentration of the compound in μM indicated in parentheses, unless Ki was assigned as designated by (Ki), at 10 minute preincubation with 50 nM RVP prior to addition of substrate was used. The data in the column designated kobs/I was measured from progress curves in enzyme start experiments.

Regarding `CCOC(=O)/C=C/[C@H](CCC(N)=O)NC(=O)C1CN(Cc2ccccc2)CCN1C(=O)[C@H](CC(C)C)NC(=O)OCc1ccccc1` (mixture of isomers) [Compound 28, Ethyl-3-(CBZ-L-Leu-DL-(4-Benzyl)-Pipz-L-Gln]-E-Propenoate], in the data set on HRV-14, the TI came out at 18 and a half-maximal effect (EC50) was put at 6900 nM. In addition, the 50% cytotoxic concentration (CC50) (as a rule, the concentration that lowers cell viability or growth by half) at 48 h in the data set “in vitro” turned out to be 125 µM. In data set [1], the Ki (as a rule, a measure of affinity in units of concentration, obtained from inhibition or displacement) was 50 µM and the kinact/KI came out at 116 M⁻¹ s⁻¹.
For the molecule `CCOC(=O)/C=C/[C@H](CCC(N)=O)NC(=O)C1CN(S(=O)(=O)c2ccccc2)CCN1C(=O)[C@H](CC(C)C)NC(=O)OCc1ccccc1` (mixture of isomers) [Compound 29, Ethyl-3-[CBZ-L-Leu-DL-(4-Phenylsulfonyl)-Pipz-L-Gln]-E-Propenoate], in the data set on HRV-14, the TI came out at 5 and a half-maximal response (EC50) required 46000 nM. The molecule also returned a CC50 at 48 h in “in vitro” of 251 µM. Also, in data set [1], the kinact/KI came out at 45 M⁻¹ s⁻¹.
On to `CCOC(=O)/C=C/[C@H](CCC(N)=O)NC(=O)[C@H](Cc1ccccc1)N(C)C(=O)OCc1ccccc1` [Compound 1, Ethyl-3-(CBZ-L-N-Me-Phe-L-Gln)-E-Propenoate], for which, in the data set with HRV-14, the TI was 13 and a half-maximal effect (EC50) was put at 20000 nM. Besides, the midpoint of cytotoxicity in the data set “in vitro”, the CC50 at 48 h, lay at 251 µM. In data set [1], the Ki is over 100 µM and the kinact/KI was found to be 52 M⁻¹ s⁻¹.
Regarding `CCOC(=O)/C=C/[C@H](CCC(N)=O)NC(=O)[C@H](Cc1ccccc1)N(C)C(=O)[C@H](CC(C)C)NC(=O)SC1CCCC1` [Compound 5, Ethyl-3-(Cyclopentylthiocarbonyl-L-Leu-L-N-Me-Phe-L-Gln)-E-Propenoate], in the data set on HRV-14, the TI is recorded as 214 and the midpoint of the response, the EC50, lay at 240 nM. In “in vitro”, the CC50 at 48 h came out at 51.4 µM. Moreover, the kinact/KI in data set [1] came to 17300 M⁻¹ s⁻¹.
With `CC(C)C[C@H](NC(=O)SC1CCCC1)C(=O)N(C)[C@@H](Cc1ccccc1)C(=O)N[C@H](/C=C1\CCOC1=O)CCC(N)=O` [Compound 6, 2-(Cyclopentylthiocarbonyl-L-Leu-L-N-Me-Phe-L-Gln)-E(α-Vinyl-γ-Butyrolactone)], in the data set on HRV-14, the TI is reported as 54 and a half-maximal effect (EC50) was put at 2800 nM. In “in vitro”, the CC50 at 48 h is 151 µM. In addition, the kinact/KI in data set [1] was 9500 M⁻¹ s⁻¹.
On to `CCSC(=O)N[C@@H](CC(C)C)C(=O)N(C)[C@@H](Cc1ccccc1)C(=O)N[C@H](/C=C/C(=O)N1CCc2ccccc21)CCC(N)=O` [Compound 7, 1-(2',3'-Dihydroindolin-1-yl)-3-(Ethylthiocarbonyl-L-Leu-L-N-Me-Phe-L-Gln)-E-Propenone], for which, in the data set on HRV-14, the TI amounted to 37 and the EC50 (as a rule, the concentration at which the effect is half-maximal) turned out to be 1300 nM. For the same molecule, it took 47.9 µM to reach half-maximal cytotoxicity in the data set “in vitro” (CC50 at 48 h). Moreover, the kinact/KI in data set [1] is 3820 M⁻¹ s⁻¹.
In the data set on HRV-14, `CCSC(=O)N[C@@H](CC(C)C)C(=O)N(C)[C@@H](Cc1ccccc1)C(=O)N[C@H](/C=C1\CCOC1=O)CCC(N)=O` [Compound 8, 2-(Ethylthiocarbonyl-L-Leu-L-N-Me-Phe-L-Gln)-E-(α-Vinyl-γ-Butyrolactone)] registered a TI of over 32 and an EC50 of 10000 nM. The molecule further came in with a CC50 at 48 h in “in vitro” of over 320 µM. Besides, in data set [1], the kinact/KI was determined as 6880 M⁻¹ s⁻¹.
`CCOC(=O)/C=C/[C@H](CCC(N)=O)NC(=O)[C@H](Cc1ccccc1)N(C)C(=O)[C@H](CCc1ccccc1)NC(=O)SCc1ccccc1` [Compound 9, Ethyl-3-(Benzylthiocarbonyl-L-hPhe-L-N-Me-Phe-L-Gln)-E-Propenoate]: in the data set with HRV-14, the TI is recorded as 225 and the EC50 turned out to be 250 nM. For the same molecule, the midpoint of cytotoxicity in the data set “in vitro”, the CC50 at 48 h, lay at 56.2 µM. For the same molecule, in data set [1], the Ki came out at 4.4 µM and the kinact/KI worked out at 57000 M⁻¹ s⁻¹.
On the same counts, the results for `CN(C(=O)[C@H](CCc1ccccc1)NC(=O)SCc1ccccc1)[C@@H](Cc1ccccc1)C(=O)N[C@H](/C=C1\CCOC1=O)CCC(N)=O` [Compound 10, 2-(Bezylthiocarbonyl-L-hPhe-L-N-Me-Phe-L-Gln)-E-(α-Vinyl-γ-Butyrolactone)] are 31, 1800 nM, 56.2 µM, 2 µM and 41800 M⁻¹ s⁻¹.
In the data set on HRV-14, `CCOC(=O)/C=C/[C@H](CCC(N)=O)NC(=O)[C@H](Cc1ccccc1)N(C)C(=O)[C@H](CC(C)C)NC(=O)SCC` [Compound 11, Ethyl-3-(Ethylthiocarbonyl-L-Leu-L-N-Me-Phe-L-Gln)-E-Propenoate] had a TI of over 603 and an EC50 of 530 nM. In addition, the cytotoxic concentration (CC50) at 48 h in the data set “in vitro” is over 320 µM. Moreover, in data set [1], the kinact/KI came out at 12000 M⁻¹ s⁻¹.
On the same counts, the results for `CCSC(=O)N[C@H](C(=O)N(C)[C@@H](Cc1ccccc1)C(=O)N[C@H](/C=C1\CCOC1=O)CCC(N)=O)C(C)C` [Compound 12, 2-(Ethylthiocarbonyl-L-Val-L-N-Me-Phe-L-Gln)-E-(α-Vinyl-γ-Butyrolactone)] are over 76, 4200 nM, over 320 µM and 5070 M⁻¹ s⁻¹.
Regarding `CCSC(=O)N[C@@H](CC(C)C)C(=O)N(C)[C@@H](Cc1ccccc1)C(=O)N[C@H](/C=C/C(=O)N1CCOC1=O)CCC(N)=O` [Compound 17, 1-[2'-Oxazolidon-3'-yl]-3-(Ethylthiocarbonyl-L-Leu-L-N-Me-Phe-L-Gln)-E-Propepone], in the data set on HRV-14, the TI turned out to be 106 and the EC50 came to 500 nM. For the same molecule, the CC50 at 48 h in the data set “in vitro” amounted to 53 µM. In addition, in data set [1], the kinact/KI was found to be 750000 M⁻¹ s⁻¹.
In the data set on HRV-14, `CCOC(=O)/C=C/[C@H](CCC(N)=O)NC(=O)[C@@H]1[C@@H](c2ccccc2)CCN1C(=O)[C@H](CC(C)C)NC(=O)OCc1ccccc1` [Compound 18, Ethyl-3-[CBZ-L-Leu-L-(3R-Phenyl)-Pro-L-Gln]-E-Propenoate] had a TI of 25 and an EC50 of 5000 nM. Besides, the 50% cytotoxic concentration (CC50) at 48 h in “in vitro” was 126 µM. In addition, in data set [1], the Ki came out at 7 µM and the kinact/KI worked out at 423 M⁻¹ s⁻¹.
Turning to `CCOC(=O)/C=C/[C@H](CCC(N)=O)NC(=O)[C@@H]1CCCN1C(=O)[C@H](CC(C)C)NC(=O)OCc1ccccc1` [Compound 19, Ethyl-3-(CBZ-L-Leu-L-Pro-L-Gln)-E-Propenoate], in the data set on HRV-14, the TI is given as over 6 and the response was half-maximal at 50000 nM (EC50). Also, the CC50 at 48 h in the data set “in vitro” is over 320 µM. Moreover, the kinact/KI in data set [1] is 1930 M⁻¹ s⁻¹.
In the case of `CCOC(=O)/C=C/[C@H](CCC(N)=O)NC(=O)[C@@H]1C[C@@H](OCc2ccccc2)CN1C(=O)[C@H](CC(C)C)NC(=O)OCc1ccccc1` [Compound 20, Ethyl-3-[CBZ-L-Leu-L-(4R-Benzyloxy)-Pro-L-Gln]-E-Propenoate], in the data set with HRV-14, the TI worked out at 10.3 and the response was half-maximal at 5400 nM (EC50). Also, the CC50 at 48 h in the data set “in vitro” was 56 µM. Moreover, in data set [1], the Ki worked out at 62 µM and the kinact/KI came to 3330 M⁻¹ s⁻¹.
In the data set on HRV-14, `Cc1cc(CCCCCCCOc2ccc(C3=NCCO3)cc2)on1` [WIN 51711, reference compound] came in with a TI of over 77 and an EC50 of 780 nM. The same molecule gave a CC50 at 48 h in the data set “in vitro” of over 60 µM.
On the same counts, the results for `Cc1cc(CCCCCCCOc2ccc(C3=N[C@@H](C)CO3)cc2)on1` [WIN 52084, reference compound] are over 143, 70 nM and over 10 µM.
